Consider 6 compounds from PMC2848589, “Raltegravir Is a Potent Inhibitor of XMRV, a Virus Implicated in Prostate Cancer and Chronic Fatigue Syndrome” (PLoS ONE, 2010).

Where a name gives a salt, the structure may show the parent alone. Bounds are passed on as bounds.

One data set concerns HIV-1LAI. Put plainly: HIV-1 replication in PHA-stimulated peripheral blood mononuclear cells. In kind it is cell-based. To be noted: Human immunodeficiency virus 1, PBMC; for EC50: read-out: HIV-1 in PBM cells EC50; for EC90: read-out: HIV-1 in PBM cells EC90. As for the experimental part: (§1) We tested a total of 45 compounds belonging to different classes of HIV-1 inhibitors, and a few inhibitors of viruses other than retroviruses, for their ability to inhibit XMRV replication in cultured cells. LNCaP and MCF-7 cells were chosen for their ability to support robust in vitro replication of XMRV. […] To determine if a reduction in viral release might be due to toxicity of the compound and not due to specific antiretroviral activity, cellular morphology was monitored every 24 h by microscopic examination, and an MTT [3-(4,5-dimethylthiazol-2-yl)-2,5-diphenyltetrazolium bromide] colorimetric assay was used to measure potential cytotoxicity produced by the compounds. Supernatants were collected every 24 h and assayed for viral release by measuring RT activity. […] For comparison purposes, all compounds evaluated in these studies were also tested against HIV-1LAI in primary human lymphocytes.
(§2) Each well was carefully monitored for signs of cellular toxicity due to the inhibitors by microscopic observation every 24 h. In addition, cell viability was measured using the CellTiter 96 AQueous One Solution cell proliferation assay according to the manufacturer (Promega, Madison, Wis). Viral release from the cells was assayed by measuring RT activity in the supernatant. For this, supernatant from each well was collected every 24 h and frozen at −20°C until it was analyzed by RT assay for viral release as described previously. In brief, oligo(dT)·poly(rA) primer-template assays were performed in the presence of radiolabeled [α-^32P]dTTP and Mn^2+. After incubating the viral supernatants with the RT reaction mix for 1 h at 37°C, samples were spotted onto DE81 DEAE cellulose paper (Whatman) and unincorporated label washed away with 2× SSC (1× SSC = 0.15 M NaCl and 0.015 M sodium citrate). […] Inhibition of viral release as measured on day 6 after inoculation was averaged over 3–5 experiments and plotted. The antiviral EC50 and cytotoxic concentrations (CC50,) was determined from the concentration–response curve using the median effect method. HIV-1 replication assays were performed as described previously using peripheral blood mononuclear cells (PBMC) obtained from the American Red Cross, Atlanta, GA, that were stimulated with phytohemagglutinin (PHA) for 72 hr.

In data set [1] the test system is XMRV. Put plainly: XMRV replication in MCF-7 cells (viral release by RT activity in supernatant). In kind it is cell-based. To be noted: for EC50 / EC90: MCF7, 144 h; for EC50: read-out: XMRV in MCF-7 cells EC50; for EC90: read-out: XMRV in MCF-7 cells EC90.
The nature of data set [2]: Cytotoxicity in PBM cells. Conditions: human, peripheral blood mononuclear (PBM) cells, read-out: HIV-1 in PBM cells CC50. Format: cell-based. As for the experimental part:
as §2

Data set [3] relates to XMRV. Put plainly: XMRV replication in LNCaP cells (viral release by RT activity in supernatant). Format: cell-based. To be noted: for inhibition at 100 µM: read-out: inhibition of XMRV replication. How it is done: as §1
Viral release from XMRV-infected LNCaP cells in the presence of increasing concentrations of (A) ZDV (B) TDF (C) RAL and (D) L-000870812, was determined by measuring RT activity in the supernatants. […] Cell viability was checked by microscopy, quantified by the MTT assay, and represented by shaded bars. Data for each compound were derived from an average of at least three independent experiments, each performed in duplicate.
293T cells (ATCC, CRL-11268) were transfected with pXMRV1, an infectious clone of XMRV [2]. Virus released in the supernatant was harvested and titrated by inoculating MCF-7 cells, a breast cancer cell line (ATCC, HTB-22) at 70% confluence, with a series of ten-fold dilutions of XMRV in serum-free medium, followed 36–48 hrs later by fixation of cells in paraformaldehyde and processing for immunofluorescence using a rabbit antiserum developed against inactivated XMRV [2]. […] Virus was diluted in serum-free medium and used to inoculate cells at a multiplicity of infection (MOI) of approximately 3, in the presence of various antiviral compounds as described below. LNCaP, a prostate cancer cell line (ATCC, CRL-1740) and MCF-7 cells were grown to about 50% confluence in DMEM containing 10% heat inactivated fetal bovine serum, […]. Cells were washed twice with Dulbecco's phosphate buffered saline (DPBS, Gibco), and incubated with the viral inoculum for 90 min at 37°C in the presence of 95% air and 5% CO2, cells were washed twice with DPBS, detached with Trypsin-EDTA (0.25% Trypsin; Cellgro), and counted. One thousand cells were added to each well of a 96-well plate, along with an equal volume of medium containing the retroviral inhibitor at 2-fold the desired concentration. […] For controls, wells containing water or DMSO at appropriate concentrations were used.
Each well was carefully monitored for signs of cellular toxicity due to the inhibitors by microscopic observation every 24 h. In addition, cell viability was measured using the CellTiter 96 AQueous One Solution cell proliferation assay according to the manufacturer (Promega, Madison, Wis). Viral release from the cells was assayed by measuring RT activity in the supernatant. For this, supernatant from each well was collected every 24 h and frozen at −20°C until it was analyzed by RT assay for viral release as described previously. In brief, oligo(dT)·poly(rA) primer-template assays were performed in the presence of radiolabeled [α-^32P]dTTP and Mn^2+. After incubating the viral supernatants with the RT reaction mix for 1 h at 37°C, samples were spotted onto DE81 DEAE cellulose paper (Whatman) and unincorporated label washed away with 2× SSC (1× SSC = 0.15 M NaCl and 0.015 M sodium citrate).

Data set [4] is described as follows: Cytotoxicity in MCF-7 cells (MTT / CellTiter 96 AQueous One). In kind it is cell-based, human. Conditions: human. As for the experimental part:
as §1, §2

The subject of another data set is MCF-7 cells. The data set is described as above. In kind it is cell-based, human. As for the experimental part:
as §1, §2

Usually EC50 stands for the concentration at which the effect is half-maximal. By EC90 is commonly meant the concentration at which the effect reaches the 90% level. In general, CC50 refers to the concentration that lowers cell viability or growth by half. For the compound `CC(C)OC(=O)OCOP(=O)(CO[C@H](C)Cn1cnc2c(N)ncnc21)OCOC(=O)OC(C)C` [Tenofovir disoproxil fumarate (TDF), Tenofovir disoproxil fumarate], the 50% effective concentration (EC50) with HIV-1LAI amounted to 0.016 µM; with XMRV [1] it was 0.24 µM; with XMRV [3] (LNCaP, read-out: EC50 in LNCaP cells), 0.9 µM. Moreover, the EC90 was 0.18 µM in the data set on HIV-1LAI; 15.3 µM in the data set on XMRV [1]; 4.2 µM in the data set with XMRV [3] (LNCaP, read-out: EC90 in LNCaP cells). The “therapeutic index (TI, the ratio of CC50/EC50)” value with XMRV [1] (XMRV, MCF-7 cells) is given as 218. The values for the CC50 in data set [2] and in data set [4] were 17.8 µM and 52.2 µM, respectively.
By inhibition is commonly meant the relative decrease from the control value, in per cent. Regarding `Cc1cn([C@H]2C=C[C@@H](CO)O2)c(=O)[nH]c1=O` [Stavudine (D4T), Stavudine], the EC50 came out at 0.09 µM in the data set with HIV-1LAI and 75.6 µM with XMRV [1]. The figures for the concentration for an effect of 90% (EC90) with HIV-1LAI and with XMRV [1] were 0.49 µM and greater than 100 µM, respectively. For the same compound, the CC50 in data set [2] was greater than 100 µM; in data set [4] (MCF-7 cells, read-out: XMRV in MCF-7 cells CC50) it was greater than 100 µM. Also, in the data set with XMRV [3] (LNCaP), the inhibition at 100 µM is greater than 70%.
Regarding `Nc1ccn([C@H]2C=C[C@@H](CO)O2)c(=O)n1` [D4C], in the data set with MCF-7 cells, the CC50 is greater than 100 µM.
`Nc1nc2c(ncn2[C@H]2C=C[C@@H](CO)C2)c(=O)[nH]1` [(-)-carbovir (CBV), (-)-carbovir]: the “inhibition of XMRV replication” value in the data set on XMRV [3] (100 µM, see Table S1 (cell line not given)) was “greater than 70%”. In the data set with MCF-7 cells, this compound showed a CC50 greater than 100 µM.
In the case of `Cc1cn([C@H]2C[C@H](F)[C@@H](CO)O2)c(=O)[nH]c1=O` [3'-Fluoro-3'-deoxythymidine (FLT), 3'-Fluoro-3'-deoxythymidine], the concentration giving a half-maximal response (EC50) with HIV-1LAI was 0.00018 µM; with XMRV [1], 7.9 µM. Moreover, the EC90 with HIV-1LAI is 0.005 µM; in the data set on XMRV [1], greater than 100 µM. Moreover, the 50% cytotoxic concentration (CC50) in data set [2] is 13.8 µM; in data set [4] it was 75.8 µM. Also, in the data set on XMRV [3] (LNCaP), the inhibition at 100 µM is greater than 70%.
For the compound `Nc1nc2c(ncn2C2COC(CO)O2)c(=O)[nH]1` [9-(β-D-1,3-Dioxolan-4-yl)guanine (DXG), 9-(β-D-1,3-Dioxolan-4-yl)guanine], the “activity against XMRV (in words)” value in the data set on XMRV [1] (tested up to 100 µM, Figure 1) was “essentially inactive”. In addition, in the data set with MCF-7 cells, the CC50 was greater than 100 µM.
